Experimental data published in patent publication US4364958A, “1-Substituted-3-cycloalkyl-sulfonyl-pyrrolidine-2,5-dione derivatives and fungicidal compositions thereof” (Chinoin Gyogyszer es Vegyeszeti Termekek Gyara Rt., priority 1979, dated 1982).
Converted amounts (≈) assume the structure as drawn. Like-named read-outs stand apart in the source and are kept apart here.

Assays:
Experiment in all cases: minimal inhibitory concentration in Sabouraud medium
Assay type in all cases: cell-based
[1] = test system: Sporotrichum schenkii CBS.34035; conditions: Sporotrichum
Text: Sporotrichum schenkii CBS.34035
(§1) As a medium Saboroud medium was employed.

[2] = test system: Aspergillus niger CBS.12648; conditions: Aspergillus niger
Text: Aspergillus niger CBS.12648
as §1

[3] = test system: Trichophyton rubrum CBS.30338; conditions: Trichophyton rubrum
Text: Trichophyton rubrum CBS.30338
as §1

[4] = test system: Trichophyton mentagrophytes CBS.50148; conditions: Trichophyton mentagrophytes, read-out: minimal inhibitory concentration
Text: Trichophyton mentagrophytes CBS.50148
as §1

Candida albicans CBS.562 = conditions: Candida albicans
Text: Candida albicans CBS.562 "2"
as §1

[5] = test system: Penicillium digitatum CBS.31948; conditions: Penicillium digitatum
Text: Penicillium digitatum CBS.31948
as §1

[6] = test system: Saccharomyces cerevisiae OKI.1282; conditions: Saccharomyces cerevisiae
Text: Saccharomyces cerevisiae OKI.1282
as §1

[7] = test system: Epidermophyton floccosum OKI/IV.; conditions: Epidermophyton floccosum, read-out: minimal inhibitory concentration
Text: Epidermophyton floccosum OKI/IV.
as §1

SMILES | MIC ([1]; CBS.34035, 72 h, 72 hours) | MIC ([1]; CBS.34035, 144 h, 144 hours) | MIC ([1]; CBS.34035, 288 h, 288 hours) | MIC ([2]; CBS.12648, 72 h, 72 hours) | MIC ([2]; CBS.12648, 144 h, 144 hours) | MIC ([2]; CBS.12648, 288 h, 288 hours) | MIC ([3]; CBS.30338, 72 h, 72 hours) | MIC ([3]; CBS.30338, 144 h, 144 hours) | MIC ([3]; CBS.30338, 288 h, 288 hours) | MIC ([4]; CBS.50148, 72 h, 72 hours) | MIC ([4]; CBS.50148, 144 h, 144 hours) | MIC ([4]; CBS.50148, 288 h, 288 hours) | MIC (Candida albicans CBS.562; CBS.562, 24 h, 24 hours) | MIC (Candida albicans CBS.562; CBS.562, 48 h, 48 hours) | MIC ([5]; CBS.31948, 72 h, 72 hours) | MIC ([5]; CBS.31948, 144 h, 144 hours) | MIC ([5]; CBS.31948, 288 h, 288 hours) | MIC ([6]; OKI.1282, 24 h, 24 hours) | MIC ([6]; OKI.1282, 48 h, 48 hours) | MIC ([7]; 72 h) | also measured
O=C1CC(S(=O)(=O)C2CCCCC2)C(=O)N1c1ccccc1Cl (centres unmarked) [1-(2-chlorophenyl)-3-cyclohexyl-sulfonyl-pyrrolidine-2,5-dione] | 10 µg/mL (≈ 28.1 µM) | 50 µg/mL (≈ 141 µM) | 50 µg/mL (≈ 141 µM) | 50 µg/mL (≈ 141 µM) | 150 µg/mL (≈ 422 µM) | 150 µg/mL (≈ 422 µM) | 2.5 µg/mL (≈ 7.03 µM) | 10 µg/mL (≈ 28.1 µM) | 10 µg/mL (≈ 28.1 µM) | 2.5 µg/mL (≈ 7.03 µM) | 5 µg/mL (≈ 14.1 µM) | 5 µg/mL (≈ 14.1 µM) | 50 µg/mL (≈ 141 µM) | 50 µg/mL (≈ 141 µM) | 25 µg/mL (≈ 70.3 µM) | 50 µg/mL (≈ 141 µM) | 50 µg/mL (≈ 141 µM) | 25 µg/mL (≈ 70.3 µM) | 75 µg/mL (≈ 211 µM) | 2.5 µg/mL (≈ 7.03 µM) | MIC ([7]; 144 h): 5 µg/mL (≈ 14.1 µM); MIC ([7]; 288 h): 10 µg/mL (≈ 28.1 µM)
O=C1CC(S(=O)(=O)C2CCCCC2)C(=O)N1c1cccc([N+](=O)[O-])c1 (centres unmarked) [1-(3-nitrophenyl)-3-cyclohexyl-sulfonyl-pyrrolidine-2,5-dione] | 25 µg/mL (≈ 68.2 µM) | 75 µg/mL (≈ 205 µM) | 75 µg/mL (≈ 205 µM) | 75 µg/mL (≈ 205 µM) | 150 µg/mL (≈ 409 µM) | 150 µg/mL (≈ 409 µM) | 5 µg/mL (≈ 13.6 µM) | 5 µg/mL (≈ 13.6 µM) | 5 µg/mL (≈ 13.6 µM) | 2.5 µg/mL (≈ 6.82 µM) | 5 µg/mL (≈ 13.6 µM) | 25 µg/mL (≈ 68.2 µM) | 50 µg/mL (≈ 136 µM) | 100 µg/mL (≈ 273 µM) | 25 µg/mL (≈ 68.2 µM) | 50 µg/mL (≈ 136 µM) | 50 µg/mL (≈ 136 µM) | 75 µg/mL (≈ 205 µM) | 75 µg/mL (≈ 205 µM) | 5 µg/mL (≈ 13.6 µM) | MIC ([7]; 144 h): 10 µg/mL (≈ 27.3 µM); MIC ([7]; 288 h): 10 µg/mL (≈ 27.3 µM)
COc1ccc(N2C(=O)CC(S(=O)(=O)C3CCCCC3)C2=O)cc1 (centres unmarked) [1-(4-Methoxyphenyl)-3-cyclohexyl-sulfonyl-pyrrolidine-2,5-dione] | 5 µg/mL (≈ 14.2 µM) | 10 µg/mL (≈ 28.5 µM) | 10 µg/mL (≈ 28.5 µM) | 75 µg/mL (≈ 213 µM) | 100 µg/mL (≈ 285 µM) | 150 µg/mL (≈ 427 µM) | 10 µg/mL (≈ 28.5 µM) | 10 µg/mL (≈ 28.5 µM) | 10 µg/mL (≈ 28.5 µM) | 2.5 µg/mL (≈ 7.11 µM) | 75 µg/mL (≈ 213 µM) | 100 µg/mL (≈ 285 µM) | 50 µg/mL (≈ 142 µM) | 150 µg/mL (≈ 427 µM) | 100 µg/mL (≈ 285 µM) | 100 µg/mL (≈ 285 µM) | 150 µg/mL (≈ 427 µM) | 25 µg/mL (≈ 71.1 µM) | 50 µg/mL (≈ 142 µM) | 5 µg/mL (≈ 14.2 µM) | MIC ([7]; 144 h): 25 µg/mL (≈ 71.1 µM); MIC ([7]; 288 h): 75 µg/mL (≈ 213 µM)
CC(=O)c1ccc(N2C(=O)CC(S(=O)(=O)C3CCCCC3)C2=O)cc1 (centres unmarked) [1-(4-acetylphenyl)-3-cyclohexyl-sulfonyl-pyrrolidine-2,5-dione] | 5 µg/mL (≈ 13.8 µM) | 25 µg/mL (≈ 68.8 µM) | 25 µg/mL (≈ 68.8 µM) | 75 µg/mL (≈ 206 µM) | 150 µg/mL (≈ 413 µM) | 150 µg/mL (≈ 413 µM) | 10 µg/mL (≈ 27.5 µM) | 25 µg/mL (≈ 68.8 µM) | 50 µg/mL (≈ 138 µM) | 10 µg/mL (≈ 27.5 µM) | 25 µg/mL (≈ 68.8 µM) | 25 µg/mL (≈ 68.8 µM) | 50 µg/mL (≈ 138 µM) | 75 µg/mL (≈ 206 µM) | 75 µg/mL (≈ 206 µM) | 100 µg/mL (≈ 275 µM) | 150 µg/mL (≈ 413 µM) | 25 µg/mL (≈ 68.8 µM) | 50 µg/mL (≈ 138 µM) | 25 µg/mL (≈ 68.8 µM) | MIC ([7]; 144 h): 50 µg/mL (≈ 138 µM); MIC ([7]; 288 h): 75 µg/mL (≈ 206 µM)
O=C1CC(S(=O)(=O)C2CCCCC2)C(=O)N1c1cccc(Cl)c1 (centres unmarked) [1-(m-chlorphenyl)-3-cyclohexylsulfonyl-pyrrolidine-2,5-dione] | 10 µg/mL (≈ 28.1 µM) | 25 µg/mL (≈ 70.3 µM) | 25 µg/mL (≈ 70.3 µM) | 50 µg/mL (≈ 141 µM) | 100 µg/mL (≈ 281 µM) | 100 µg/mL (≈ 281 µM) | 2.5 µg/mL (≈ 7.03 µM) | 2.5 µg/mL (≈ 7.03 µM) | 2.5 µg/mL (≈ 7.03 µM) | 2.5 µg/mL (≈ 7.03 µM) | 2.5 µg/mL (≈ 7.03 µM) | 2.5 µg/mL (≈ 7.03 µM) | 25 µg/mL (≈ 70.3 µM) | 75 µg/mL (≈ 211 µM) | 10 µg/mL (≈ 28.1 µM) | 50 µg/mL (≈ 141 µM) | 50 µg/mL (≈ 141 µM) | 10 µg/mL (≈ 28.1 µM) | 25 µg/mL (≈ 70.3 µM) | 2.5 µg/mL (≈ 7.03 µM) | MIC ([7]; 144 h): 5 µg/mL (≈ 14.1 µM); MIC ([7]; 288 h): 10 µg/mL (≈ 28.1 µM)
